Reference: US20240099998A1, “COMPOSITIONS AND METHODS FOR INDUCING DEFECATION” (priority 2021, published 2024)

What was measured:
[1] = test system: anesthetized naïve (spinal intact) rats, rectal pressure; experiment: Rectal (colorectal) pressure recording via balloon catheter after intrarectal dosing in anesthetized spinal intact rats; format: in vivo, rat
Procedure: General: In vivo studies were performed in anesthetized, spinally intact rats (N=10). Adult male Sprague Dawley rats (Charles River, 250-300 g) were housed at an AAALAC approved facility in cages (2-3/cage) with free access to water and food in a colony room that was maintained on a 12 hr light/12 hr dark cycle 1-2 weeks before the experiment. Rats were anesthetized with urethane (1.2-1.4 g/kg subcutaneous injection). Surgical procedures were then performed with the addition of isoflurane anesthesia (0.05-1.5% in O2) as the full anesthetic effect of urethane takes about 1-2 hrs.
A catheter filled with heparinized saline (30 unit/ml) was inserted into the carotid artery and connected to a pressure transducer for measurement of blood pressure and heart rate. A catheter was inserted into the jugular vein for intravenous (i.v.) administration of drugs.
Colorectal Contractility: Colorectal pressures were measured via a latex balloon catheter (length 2-3 cm) inserted (˜3-4 cm) into the distal colorectal region. The catheter was connected to a pressure monitoring system. The pressure in the balloon catheter was slowly increase to 10-15 mmHg by infusing saline (0.2-0.5 ml total volume) and this pressure was maintained throughout the study. This allowed drug induced changes in colorectal pressure to be monitored. Parameters measured include peak colorectal pressure response, duration of time above baseline activity (in the 1st 5 min after drug administration), area under the curve (measured during the 1st 5 min after drug administration) and the number of contractile events after vehicle and drug administration.
Dosing: Intrarectal TRPV1 agonists were administered in a dose range of 0.01-2% wt/vol. Nonivamide, OEA, OLDA and capsaicin were dissolved in 95% ethanol at 20-100 mg/mL and then diluted to 0.01-2% with the vehicle (Tween-80:95% ethanol:saline in a ratio of 10:10:80) and administered intrarectally as a solution using a small gauge tube, or a solution soaked cotton wool plug, to mimic a suppository-like dosage form.
Methods: The TRPV1 receptor agonist nonivamide was administered to anesthetized spinal intact male rats (N=6) instrumented for rectal pressure recording via a balloon catheter inserted into the rectum 3-4 cm from the anus. A 0.1% solution (0.2 mL of a 1 mg/ml solution in Tween-80:ethanol:saline (ratio 10:10:80)) of nonivamide was administered via a 20 gauge feeding tube that was inserted ˜2 cm into the rectum. For comparison, vehicle (Tween-80:ethanol:saline in a ratio of 10:10:80) was administered using the same techniques.
Methods: The TRPV1 receptor agonist nonivamide was administered to anesthetized spinal intact male rats instrumented for rectal pressure recording via a balloon catheter inserted into the rectum 3-4 cm from the anus. A 1% solution (0.2 mL of a 10 mg/ml solution in Tween-80:ethanol:saline (ratio 10:10:80)) of nonivamide was administered via a 20 gauge feeding tube that was inserted 2-3 cm into the rectum.
Methods: Nonivamide was administered to a naive anesthetized male rat instrumented for rectal pressure recording via a balloon catheter inserted into the rectum 2-4 cm from the anus. To mimic a suppository dosage form, nonivamide (1%) was administered via a fluid-soaked small cotton wool plug. The cotton wool plug was placed into the anal canal at the distal rectum.
Methods: OAE (N=4) was administered to anesthetized naïve male rats (N=5) instrumented for rectal pressure recording via a balloon catheter inserted into the rectum 3-4 cm from the anus. OEA was administered as 0.01-0.2% solution (0.2 mL of a […] solution in Tween-80:95% ethanol:saline (ratio 10:10:80)) via a small cotton wool plug soaked in 0.2 mL of solution, to mimic a suppository dosage form, that was inserted into the rectum. For comparison, vehicle was administered to all rats using the same techniques. […]

conscious dogs, colon = conditions: intracolonic administration; cited from earlier work
[2] = test system: anesthetized acute T9-transected SCI rat, rectal pressure; experiment: Rectal pressure recording in anesthetized acute spinal cord injured (SCI) rat; format: in vivo; conditions: cotton ball suppository soaked in 50 uL of 0.2% solution, acute T9-transected SCI female rat
Procedure: For the acute SCI model, animals were anesthetized with urethane (1.0-1.4 g/kg subcutaneous injection), the skin and muscle on the dorsal side at the level of the thoracic vertebrae were incised, and the spinal cord was carefully exposed by a laminectomy and transected at T8-T10 spinal level. Gelfoam^R was placed at the incision site and the muscle and skin overlying the vertebrae were closed with wound clips. The spinal cord was transected at least 60 min before starting the experimental protocol.
For all rectal contractility studies, animals were anesthetized with urethane (1.0-1.4 g/kg subcutaneous injection). […]
Rectal Contractility: Rectal pressures were measured via a latex balloon catheter (length 1.5-4 cm) inserted (˜4 cm) into the distal rectal region. […] Parameters measured included peak rectal pressure response, duration of time above baseline activity (in the 1st 5 min after drug administration), area under the curve (measured during the 1st 5 min after drug administration) and the number of contractile events after vehicle and drug administration.
Methods: Capsaicin was administered to 2 anesthetized female rats instrumented for rectal pressure recording via a balloon catheter inserted into the rectum 2-4 cm from the anus. […] Top and bottom traces in FIG. 9 were recorded from individual female rats.

[3] = test system: conscious spinal intact rats, defecation; experiment: Defecation in conscious rats monitored in metabolism cages after intrarectal dosing; format: in vivo, rat
Procedure: Defecation in awake animals was monitored in metabolism cages. Animals were habituated to handling and the metabolism cages on 2-4 occasions prior to dosing and were then randomized to a treatment arm. Rats were weighed and placed into metabolism cages for 10 min prior to intrarectal administration of vehicle or TRPV1 agonist. The number of fecal pellets and timing of events were recorded by trained personnel that were blinded to treatment. Fecal weight was weighed at 20 min post dosing.
Defecation in conscious rats was monitored in metabolism cages. Rats were habituated to handling and the metabolism cages on 2-4 occasions before dosing, then randomized to the treatment arm. Rats were weighed and placed into metabolism cages for 10 min prior to receiving an intrarectal dose of vehicle or capsaicin. Since manual stimulation during intrarectal dosing in conscious rats can induce defecation, palpation of the distal rectum was performed to remove any fecal pellets located in the region of the anal sphincter. […] Once the anal sphincter had ceased contracting/relaxing (15-90 s) a fine catheter (22 G soft/flexible blunt tip catheter) was used to dose the vehicle or capsaicin, as this method produced little manual stimulation. Capsaicin was prepared as a 0.01, 0.1 or 1% solution (0.1, 1 or 10 mg/ml in tween-80/ethanol/saline (ratio of 10/10/80) or vehicle. Dose volumes were 0.1 mL and administered via the catheter inserted ˜1 inch through the anus into the rectum. The number of fecal pellets and timing of events were recorded by trained personnel blinded to the treatment. Fecal weight was recorded at 20 min post dosing.

[4] = test system: rectal afferent terminals; conditions: human subjects; cited from earlier work
[5] = 0.1% solution, 0.2 mL intrarectal
[6] = 1% solution, 0.2 mL intrarectal
[7] = 0.01-0.2% solution, cotton wool plug soaked in 0.2 mL, intrarectal
[8] = cotton wool plug soaked in 0.2 mL of 0.2% solution
[9] = intrarectal solution, conscious rats
[10] = 0.2% solution, 0.05-0.32 mL intrarectal
[11] = cotton ball suppository soaked in 50 uL of 0.2% solution, spinal intact naïve female rat
[12] = cotton wool plug (1% in FIG. 7A), intrarectal, N=3
[13] = 0.2%, cotton wool plug soaked in 0.2 mL, N=1

CCCCCCCCC(=O)NCc1ccc(O)c(OC)c1 [Nonivamide]
duration of rectal pressure increase [1, 5]: 5 min | onset time of rectal pressure increase [1, 5]: 1 to 2 min | rats with transient rectal pressure increase ([1]; 0.1% solution, 0.2 mL intrarectal via feeding tube, male rats): 6 of 6 | duration of rectal pressure increase [1, 6]: 5 to 10 min | onset time of rectal pressure increase [1, 6]: 1 to 2 min | rectal response: expulsion of balloon catheter ([1]; cotton wool plug soaked in 0.2 mL of 1% solution): sufficient to expel the balloon catheter | onset of increase in rectal pressure ([1]; cotton wool plug soaked in 0.2 mL of 1% solution, 1 male rat): ≤ 1 min

CCCCCCCC/C=C\CCCCCCCC(=O)NCCO [OEA, Oleoylethanolamide]
duration of rectal pressure increase [1, 7]: 5 to 10 min | onset time of rectal pressure increase [1, 7]: 0.5 to 2 min | defecation in anesthetized rat (FIG. 5) [1, 8]: defecation of fecal pellets | rectal response: expulsion of balloon catheter [1, 8]: sufficient to expel the balloon catheter

COc1cc(CNC(=O)CCCC/C=C/C(C)C)ccc1O [Capsaicin]
effect on colon and defecation (conscious dogs, colon): initiate defecation | duration of rectal pressure increase [2]: < 5 min | onset of rectal pressure increase [2]: < 2 min | number of fecal pellets expelled compared to vehicle ([3]; 1% solution, 0.1 mL intrarectal, 10 min after dosing, N=6, p<0.05): significantly increased | total weight of fecal pellets expelled compared to vehicle ([3]; 1% solution, 0.1 mL intrarectal, 20 min after dosing, N=6, p<0.05): significantly increased | time to completion of defecation [3, 9]: ≤ 10 min | time to defecation [3, 9]: ≤ 5 min | duration of rectal pressure increase [1, 10]: 5 min | onset time of rectal pressure increase [1, 10]: 1 to 2 min | rats with transient rectal pressure increase ([1]; 0.2% solution, 0.05-0.32 mL intrarectal via PE50 tube, 4 males and 1 female): 5 of 5 | peak colorectal pressure ([1]; 1% soaked cotton wool plug, FIG. 7A, example of one male rat): ~40 mmHg | duration of rectal pressure increase [1, 11]: < 5 min | onset of rectal pressure increase [1, 11]: < 2 min | duration of increase in colorectal pressure [1, 12]: < 5 min | onset of increase in colorectal pressure [1, 12]: < 1 min | reported sensations after intrarectal administration [4]: an urge to defecate

CCCCCCCC/C=C\CCCCCCCC(=O)NCCc1ccc(O)c(O)c1 [OLDA, N-Oleoyldopamine]
duration of rectal pressure increase [1, 13]: 5 min | onset time of rectal pressure increase [1, 13]: 0.5 to 2 min | rectal response: expulsion of balloon catheter [1, 8]: sufficient to expel the balloon catheter
